From the NIST ThermoML archive (doi:10.1021/je060271a)
“And” between values parts separate entries of the source, which are not always exact repeats. Equal entries are not always repeated. Numbers after ± are expanded uncertainties.

Conditions: 303.16 K, Liquid, Vibrating tube method

CCCC(=O)OCC(COC(=O)CCC)(COC(=O)CCC)COC(=O)CCC [pentaerythritol tetrabutyrate]
Conditions	mass density
3999.8 kPa	1044.9 ± 1.2 kg/m3
4021.6 kPa	1044.7 ± 1.2 kg/m3
4043.6 kPa	1044.8 ± 1.2 kg/m3
4069.7 kPa	1044.7 ± 1.2 kg/m3
4092.1 kPa	1044.9 ± 1.2 kg/m3
4114.1 kPa	1044.9 ± 1.2 kg/m3
4137.5 kPa	1044.9 ± 1.2 kg/m3
4161.7 kPa	1045 ± 1.2 kg/m3
4182.5 kPa	1044.9 ± 1.2 kg/m3
4206.7 kPa	1045.1 ± 1.2 kg/m3
4227.1 kPa	1044.9 ± 1.2 kg/m3
4251.9 kPa	1044.9 ± 1.2 kg/m3
4272.5 kPa	1044.9 ± 1.2 kg/m3
4293.5 kPa	1045.1 ± 1.2 kg/m3
4314.4 kPa	1045 ± 1.2 kg/m3
4335.5 kPa	1045 ± 1.2 kg/m3
4361 kPa	1045.1 ± 1.2 kg/m3
4381.9 kPa	1045 ± 1.2 kg/m3
4403.9 kPa	1045 ± 1.2 kg/m3
4429.5 kPa	1045.1 ± 1.2 kg/m3
4451.4 kPa	1045.1 ± 1.2 kg/m3
4473.3 kPa	1044.9 ± 1.2 kg/m3
4495 kPa	1045.2 ± 1.2 kg/m3
4520.9 kPa	1045.2 ± 1.2 kg/m3
4542.9 kPa	1045.2 ± 1.2 kg/m3
4569.8 kPa	1045.3 ± 1.2 kg/m3
4592.6 kPa	1045.1 ± 1.3 kg/m3
4616.5 kPa	1045.2 ± 1.2 kg/m3
4644.7 kPa	1045.3 ± 1.2 kg/m3
4667.4 kPa	1045.2 ± 1.2 kg/m3
4686.4 kPa	1045.3 ± 1.2 kg/m3
4703.6 kPa	1045.4 ± 1.2 kg/m3
4720.4 kPa	1045.3 ± 1.2 kg/m3
4741.5 kPa	1045.3 ± 1.2 kg/m3
4758.3 kPa	1045.4 ± 1.2 kg/m3
4771.9 kPa	1045.4 ± 1.2 kg/m3
4786.8 kPa	1045.4 ± 1.2 kg/m3
4797.7 kPa	1045.2 ± 1.2 kg/m3
4827.1 kPa	1045.4 ± 1.2 kg/m3
4830.1 kPa	1045.3 ± 1.2 kg/m3
4830.9 kPa	1045.3 ± 1.2 kg/m3
4834.9 kPa	1045.4 ± 1.2 kg/m3
4837.9 kPa	1045.4 ± 1.2 kg/m3
4839.4 kPa	1045.4 ± 1.2 kg/m3
4840.5 kPa	1045.3 ± 1.2 kg/m3
4841.7 kPa	1045.4 ± 1.2 kg/m3
4842.2 kPa	1045.4 ± 1.2 kg/m3
4842.7 kPa	1045.4 ± 1.2 kg/m3
4842.9 kPa	1045.3 ± 1.2 kg/m3
4843.4 kPa	1045.4 ± 1.2 kg/m3 and 1045.3 ± 1.2 kg/m3
4843.9 kPa	1045.3 ± 1.2 kg/m3 and 1045.4 ± 1.2 kg/m3
4844.1 kPa	1045.3 ± 1.2 kg/m3
4844.4 kPa	1045.4 ± 1.2 kg/m3
4865 kPa	1045.3 ± 1.2 kg/m3
4897.7 kPa	1045.4 ± 1.2 kg/m3
4931.1 kPa	1045.4 ± 1.2 kg/m3
4970.1 kPa	1045.4 ± 1.2 kg/m3
4994.6 kPa	1045.4 ± 1.2 kg/m3
5016.4 kPa	1045.4 ± 1.2 kg/m3
5038.9 kPa	1045.5 ± 1.2 kg/m3
5061.8 kPa	1045.5 ± 1.2 kg/m3
5088.8 kPa	1045.5 ± 1.2 kg/m3
5111.4 kPa	1045.4 ± 1.2 kg/m3
5139.1 kPa	1045.4 ± 1.2 kg/m3
5162.8 kPa	1045.5 ± 1.2 kg/m3
5186.5 kPa	1045.5 ± 1.2 kg/m3
5210.6 kPa	1045.6 ± 1.2 kg/m3
5239.4 kPa	1045.7 ± 1.2 kg/m3
5264.7 kPa	1045.6 ± 1.2 kg/m3
5290.3 kPa	1045.6 ± 1.2 kg/m3
5317.3 kPa	1045.7 ± 1.2 kg/m3
5342.9 kPa	1045.5 ± 1.2 kg/m3
5367.5 kPa	1045.7 ± 1.2 kg/m3
5393.1 kPa	1045.6 ± 1.2 kg/m3
5414.2 kPa	1045.7 ± 1.2 kg/m3
5436 kPa	1045.7 ± 1.2 kg/m3
5462.1 kPa	1045.7 ± 1.2 kg/m3
5484.2 kPa	1045.7 ± 1.2 kg/m3
5506.7 kPa	1045.7 ± 1.2 kg/m3
5533.5 kPa	1045.7 ± 1.2 kg/m3
5556 kPa	1045.9 ± 1.2 kg/m3
5579 kPa	1045.8 ± 1.2 kg/m3
5603.2 kPa	1045.8 ± 1.2 kg/m3
5627.4 kPa	1045.9 ± 1.3 kg/m3
5651.3 kPa	1045.8 ± 1.2 kg/m3
5674.9 kPa	1045.9 ± 1.2 kg/m3
5703.6 kPa	1045.9 ± 1.2 kg/m3
5728 kPa	1046 ± 1.2 kg/m3
5753.1 kPa	1045.9 ± 1.2 kg/m3
5783.4 kPa	1046 ± 1.2 kg/m3
5808.8 kPa	1046 ± 1.2 kg/m3
5831.6 kPa	1045.9 ± 1.2 kg/m3
5852.2 kPa	1046 ± 1.2 kg/m3
5876.5 kPa	1046.1 ± 1.2 kg/m3
5897.6 kPa	1046.1 ± 1.3 kg/m3
5918.4 kPa	1046.1 ± 1.2 kg/m3
5939.8 kPa	1046.1 ± 1.3 kg/m3
5964.7 kPa	1046.1 ± 1.2 kg/m3
5986.2 kPa	1046.1 ± 1.2 kg/m3
6007.4 kPa	1046.3 ± 1.2 kg/m3
6033.9 kPa	1046.1 ± 1.2 kg/m3
6056.2 kPa	1046.2 ± 1.2 kg/m3
6079 kPa	1046.2 ± 1.2 kg/m3
6101.4 kPa	1046.1 ± 1.2 kg/m3
6124.1 kPa	1046.2 ± 1.2 kg/m3
6142.1 kPa	1046.1 ± 1.2 kg/m3
6159.7 kPa	1046.1 ± 1.2 kg/m3
6178 kPa	1046.1 ± 1.2 kg/m3
6190.3 kPa	1046.2 ± 1.2 kg/m3
6202.4 kPa	1046.2 ± 1.2 kg/m3
6213.1 kPa	1046.2 ± 1.2 kg/m3
6221.2 kPa	1046.3 ± 1.2 kg/m3
6226.4 kPa	1046.2 ± 1.2 kg/m3
6231.1 kPa	1046.2 ± 1.2 kg/m3
6237.5 kPa	1046.3 ± 1.2 kg/m3
6242.1 kPa	1046.3 ± 1.2 kg/m3
6247.5 kPa	1046.2 ± 1.3 kg/m3
6252.7 kPa	1046.3 ± 1.3 kg/m3
6258.9 kPa	1046.2 ± 1.3 kg/m3
6263.7 kPa	1046.2 ± 1.3 kg/m3
6268.7 kPa	1046.4 ± 1.3 kg/m3
6273.9 kPa	1046.3 ± 1.3 kg/m3
6280.5 kPa	1046.3 ± 1.3 kg/m3
6285.5 kPa	1046.3 ± 1.3 kg/m3
6290.3 kPa	1046.4 ± 1.3 kg/m3
6296 kPa	1046.2 ± 1.2 kg/m3
6300.7 kPa	1046.2 ± 1.2 kg/m3
6304.9 kPa	1046.2 ± 1.2 kg/m3
6309.5 kPa	1046.2 ± 1.2 kg/m3
6312.6 kPa	1046.3 ± 1.2 kg/m3
6314.7 kPa	1046.4 ± 1.3 kg/m3
6316.4 kPa	1046.2 ± 1.2 kg/m3
6325.3 kPa	1046.3 ± 1.3 kg/m3
6353.3 kPa	1046.3 ± 1.3 kg/m3
6384.4 kPa	1046.4 ± 1.2 kg/m3
6414.9 kPa	1046.3 ± 1.2 kg/m3
6445.5 kPa	1046.5 ± 1.3 kg/m3
6469.5 kPa	1046.4 ± 1.3 kg/m3
6493.9 kPa	1046.3 ± 1.2 kg/m3
6597.9 kPa	1046.5 ± 1.3 kg/m3
6628 kPa	1046.5 ± 1.3 kg/m3
6653.7 kPa	1046.6 ± 1.3 kg/m3
6679.6 kPa	1046.5 ± 1.3 kg/m3
6706.4 kPa	1046.5 ± 1.3 kg/m3
6732.8 kPa	1046.5 ± 1.3 kg/m3
6763.9 kPa	1046.7 ± 1.3 kg/m3
